Values joined by “and” are separate entries in the source; they are usually repeats but may differ in a detail not shown here. Equal values may be shown once. Square brackets hold non-standard residues; d marks the D form. Peptide text beside a SMILES is read from it. Phe(3,4-Cl2) = N[C@@H](Cc1ccc(Cl)c(Cl)c1)C(=O)O; hCha = N[C@@H](CCC1CCCCC1)C(=O)O; tBuAla = CC(C)(C)C[C@H](N)C(=O)O; Cha = N[C@@H](CC1CCCCC1)C(=O)O; hLeu = CC(C)CC[C@H](N)C(=O)O
Columns and labels:
E. coli β clamp = target: T1, E. coli β clamp (Escherichia coli, UniProt P0A988); experiment: SPR competition assay: inhibition of P1-β interaction by challenging peptides; assay type: binding; settings: for ΔG: ΔG = −RT ln Ki; for Ki (10^6 M^−1): Ki = (1 + KA[β])/IC50;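 on all read-outs here: SPR responses corrected for background, then fitted with a 1:1 Langmuir binding model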
T1 construct: made in house; host or cells: E. coli BL21 (β); P1 by solid-phase synthesis
Experimental: SPR experiments were performed on a Biacore® 3000. […] After subtraction of the background response, the data were fit to the 1:1 Langmuir model using BIAevaluation (Biacore™). […] IC50 values for each challenging peptide were determined by plotting the concentration of peptide against the percentage of binding inhibition. The IC50 value of each peptide was used to calculate Ki (Ki=(1+KA[β])/IC50) which measures the affinity of the challenging peptide for β in the competition assay, and AG was derived from Ki (ΔG=RT ln Ki).

β ring = target: T2, β ring (Escherichia coli, UniProt P0A988); experiment: Isothermal titration calorimetry (ITC) of peptides into β ring solution; assay type: binding, E. coli; settings: for N: number of binding sites per β monomer / ΔS (cal/mol/deg) / Kd: ITC
T2 construct: made in house; host or cells: E. coli BL21
Experimental: ITC was performed by using a ITC200 microcalorimeter from MicroCal. Peptides (400 μM) were titrated in sequential injections (2 μl each) into a β ring solution (300 μl, 20 or 30 μM) at 25° C. Data were corrected from control experiments where peptides were injected in buffer solution (Hepes 10 mM pH 7.4, NaCl 0.15M, EDTA 3 mM, P20 0.005%). Data analysis was performed with Origin 7.0 software.

[1] = peptide 400 μM, β 20 or 30 μM, 25° C
[2] = IC50 (μM), SPR, inhibition of binding of β ring (0.25 μM) to immobilized P1
[3] = Kd (nM), peptide 400 μM, β 20 or 30 μM, 25° C

T2 sequence (P0A988 whole entry): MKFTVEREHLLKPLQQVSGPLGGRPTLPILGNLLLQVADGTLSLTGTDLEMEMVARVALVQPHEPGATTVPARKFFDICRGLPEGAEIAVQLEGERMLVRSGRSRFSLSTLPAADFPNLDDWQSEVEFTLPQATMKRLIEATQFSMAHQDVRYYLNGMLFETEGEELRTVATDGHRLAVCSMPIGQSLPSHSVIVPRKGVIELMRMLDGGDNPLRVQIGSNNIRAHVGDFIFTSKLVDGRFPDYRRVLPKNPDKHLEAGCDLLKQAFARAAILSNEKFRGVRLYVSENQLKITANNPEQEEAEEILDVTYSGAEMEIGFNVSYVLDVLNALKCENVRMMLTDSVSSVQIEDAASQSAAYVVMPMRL
T1 sequence (P0A988 whole entry): as above

CC(=O)N[C@@H](CCC(N)=O)C(=O)N[C@@H](CC(C)C)C(=O)N[C@@H](CC(=O)O)C(=O)N[C@@H](CC(C)C)C(=O)N[C@@H](Cc1ccccc1)C(=O)O [Peptide P6, Ac-Gln-Leu-Asp-Leu-Phe-OH]
ΔG (E. coli β clamp; SPR): -8.22 kcal/mol
N: number of binding sites per β monomer (β ring; [1]): 1.11 and 1.14

CC(=O)N[C@@H](CCC(N)=O)C(=O)N[C@@H](CC1CCCCC1)C(=O)N[C@@H](CC(=O)O)C(=O)N[C@@H](CC(C)C)C(=O)N[C@@H](Cc1c[nH]c2ccccc12)C(=O)O [Peptide P21, Ac-Q Cha DLW] (Ac-Q[Cha]DLW-OH; C-terminus assumed)
IC50 (E. coli β clamp; [2]): 0.64 µM

CC(=O)N[C@@H](CCC(N)=O)C(=O)N[C@@H](CC(C)(C)C)C(=O)N[C@@H](CC(=O)O)C(=O)N[C@@H](CC(C)C)C(=O)N[C@@H](Cc1ccccc1)C(=O)O [Peptide P10, Ac-Gln-NptGly-Asp-Leu-Phe-OH] (Ac-Q[tBuAla]DLF-OH)
IC50 (E. coli β clamp; [2]): 0.99 µM
Ki (10^6 M^−1) (E. coli β clamp; SPR): 1.36 10^6 M^−1
ΔG (E. coli β clamp; SPR): -8.36 kcal/mol

H-RQLVLGL-OH [Peptide P1, H-Arg-Gln-Leu-Val-Leu-Gly-Leu-OH, reference compound]
IC50 (E. coli β clamp; [2]): 8.85 µM
fold less efficient binding to the ring compared to the whole polymerase PolIV (E. coli β clamp; SPR): 30 fold
Ki (10^6 M^−1) (E. coli β clamp; SPR): 0.15 10^6 M^−1
ΔG (E. coli β clamp; SPR): -7.06 kcal/mol
ΔS (cal/mol/deg) (β ring; 25° C): 12.8 cal/mol/deg and 7.6 cal/mol/deg
N: number of binding sites per β monomer (β ring; [1]): 1.33 and 1.31
Kd (β ring; affinity (ITC)): 1000 to 2000 nM

CC(=O)N[C@@H](CCC(N)=O)C(=O)N[C@@H](CC1CCCCC1)C(=O)N[C@@H](CC(=O)O)C(=O)N[C@@H](CC1CCCCC1)C(=O)N[C@@H](Cc1ccccc1)C(=O)O [Peptide P17, Ac Q Cha D Cha F] (Ac-Q[Cha]D[Cha]F-OH; C-terminus assumed)
IC50 (E. coli β clamp; [2]): 0.31 µM

CC(=O)N[C@@H](CCC(N)=O)C(=O)N[C@@H](CC1CCCCC1)C(=O)N[C@@H](CC(=O)O)C(=O)N[C@@H](CC(C)C)C(=O)N[C@@H](Cc1ccc(Cl)c(Cl)c1)C(=O)O [Peptide P14, Ac-Gln-Cha-Asp-Leu-(3,4-di-Cl)Phe-OH] (Ac-Q[Cha]DL[Phe(3,4-Cl2)]-OH)
fold increase compared to the full PolIV enzyme (E. coli β clamp): 4 fold
IC50 (E. coli β clamp; [2]): 0.077 µM
IC50 (E. coli β clamp; IC50 SPR (nM), SPR): 0.07 µM
fold increase in interaction/affinity compared to P6 (E. coli β clamp; SPR): 15 fold
fold increase compared to P1 (E. coli β clamp; SPR IC50): 115 fold
Ki (10^6 M^−1) (E. coli β clamp; SPR): 17 10^6 M^−1
ΔG (E. coli β clamp; SPR): -9.85 kcal/mol
N: number of binding sites per β monomer (β ring; [1]): 0.91 and 0.90
Kd (β ring; [3]): ~60 nM
ΔΔG (Kcal/mol) = ΔGj − ΔGi, reference i = P7 (β ring; from ITC data, compared to P7): -0.8 kcal/mol
ΔΔG (Kcal/mol) = ΔGj − ΔGi, reference i = P11 (β ring; from ITC data, compared to P11): -1.05 kcal/mol
ΔΔG (Kcal/mol) = ΔGj − ΔGi, reference i = P12 (β ring; from ITC data, compared to P12): -0.2 kcal/mol
ΔΔG (Kcal/mol) = ΔGj − ΔGi, reference i = P13 (β ring; from ITC data, compared to P13): -0.52 kcal/mol

CC(=O)N[C@@H](CCC(N)=O)C(=O)N[C@@H](CCC1CCCCC1)C(=O)N[C@@H](CC(=O)O)C(=O)N[C@@H](CC(C)C)C(=O)N[C@@H](Cc1ccccc1)C(=O)O [Peptide P8, Ac-Gln-hCha-Asp-Leu-Phe-OH] (Ac-Q[hCha]DLF-OH)
IC50 (E. coli β clamp; [2]): 82.8 µM
Ki (10^6 M^−1) (E. coli β clamp; SPR): 16.4 10^6 M^−1
ΔG (E. coli β clamp; SPR): -5.74 kcal/mol

CC(=O)N[C@@H](CCCNC(=N)N)C(=O)N[C@@H](CCC(N)=O)C(=O)N[C@@H](CC1CCCCC1)C(=O)N[C@@H](CCCNC(=N)N)C(=O)N[C@@H](CC(C)C)C(=O)N[C@@H](Cc1ccccc1)C(=O)O [Peptide P14-7, Ac R Q Cha R L F] (Ac-RQ[Cha]RLF-OH; N-terminus and C-terminus assumed)
affinity ratio compared to P7 (E. coli β clamp; SPR): at least 50

CC(=O)N[C@@H](CCC(N)=O)C(=O)N[C@@H](CC1CCCCC1)C(=O)N[C@@H](CC(=O)O)C(=O)N[C@@H](CCC(C)C)C(=O)N[C@@H](Cc1ccccc1)C(=O)O [Peptide P16, Ac Q Cha D hLeu F] (Ac-Q[Cha]D[hLeu]F-OH; C-terminus assumed)
IC50 (E. coli β clamp; [2]): 0.23 µM

CC(C)C[C@H](NC(=O)[C@H](CC(=O)O)NC(=O)[C@H](CC(C)C)NC(=O)[C@@H](N)CCC(N)=O)C(=O)N[C@@H](Cc1ccccc1)C(=O)O [Peptide P5, H-Gln-Leu-Asp-Leu-Phe-OH]
ΔG (E. coli β clamp; SPR): -6.87 kcal/mol

H-RQLVLF-OH [Peptide P3, H-Arg-Gln-Leu-Val-Leu-Phe-OH]
IC50 (E. coli β clamp; [2]): 8.62 µM
Ki (10^6 M^−1) (E. coli β clamp; SPR): 0.15 10^6 M^−1
ΔG (E. coli β clamp; SPR): -7.04 kcal/mol
ΔS (cal/mol/deg) (β ring; 25° C): 6.05 cal/mol/deg and 6.6 cal/mol/deg
N: number of binding sites per β monomer (β ring; [1]): 1.54 and 1.45
Kd (β ring; [3]): 2820 nM and 2320 nM
